Here are results for 1 compound from the NIST ThermoML archive (doi:10.1016/j.fluid.2012.03.002).

The conditions of series [1]: Crystal; DTA.
Series [2] in a line: Molar enthalpy of transition or fusion. The settings on record: Crystal; DSC.

Numbers after ± are expanded uncertainties.

Consider `C=CC(=O)Oc1cccc(CCCCCCCCCCCCCCC)c1` [3-pentadecylphenyl acrylate], for which the Normal melting temperature in series [1] worked out at 31.50 ± 0.7 °C. For the same compound, the “Molar enthalpy of transition or fusion” value in series [2] is 13 ± 0.263 kcal/mol.
